The test system of assay [1] is A2780. In words: Cytotoxicity against A2780 cells by MTT assay. It counts as functional, cell-based. The settings on record: Homo sapiens.
A short description of assay [2]: Cytotoxicity against A2780/AD cells by MTT assay. It counts as functional, cell-based. As to conditions: Homo sapiens, A2780 ADR.

As to `CC(=O)O[C@H]1C(=O)[C@@]2(C)[C@H]([C@H](SC(=O)c3ccccc3)[C@]3(O)C[C@H](OC(=O)[C@H](O)[C@@H](NC(=O)c4ccccc4)c4ccccc4)C(C)=C1C3(C)C)[C@]1(OC(C)=O)CO[C@@H]1C[C@@H]2O`, the IC50 is 11.7 µM in assay [1] and 27 µM in assay [2].

Regarding `CC(=O)O[C@H]1C(=O)[C@@]2(C)[C@H]([C@H](SCc3ccccc3)[C@]3(O)C[C@H](OC(=O)[C@H](O)[C@@H](NC(=O)c4ccccc4)c4ccccc4)C(C)=C1C3(C)C)[C@]1(OC(C)=O)CO[C@@H]1C[C@@H]2O`, the IC50 in assay [1] is 9.9 µM; in assay [2], 9.4 µM.

Regarding `CC(=O)O[C@H]1C(=O)[C@@]2(C)[C@H]([C@H](SC(=O)c3ccccc3)[C@]3(O)C[C@H](OC(=O)[C@H](O)[C@@H](NC(=O)OC(C)(C)C)c4ccccc4)C(C)=C1C3(C)C)[C@]1(OC(C)=O)CO[C@@H]1C[C@@H]2O`, the IC50 was determined as 2.4 µM in assay [1] and 6.96 µM in assay [2].

In the case of `CC(=O)O[C@H]1C(=O)[C@@]2(C)[C@H]([C@H](SCc3ccccc3)[C@]3(O)C[C@H](OC(=O)[C@H](O)[C@@H](NC(=O)OC(C)(C)C)c4ccccc4)C(C)=C1C3(C)C)[C@]1(OC(C)=O)CO[C@@H]1C[C@@H]2O`, the IC50 was 3.5 µM in assay [1] and 8.3 µM in assay [2].

With `CC(=O)O[C@H]1C(=O)[C@@]2(C)[C@H]([C@H](OC(=O)c3ccccc3)[C@]3(O)C[C@H](OC(=O)[C@H](O)[C@@H](NC(=O)c4ccccc4)c4ccccc4)C(C)=C1C3(C)C)[C@]1(OC(C)=O)CO[C@@H]1C[C@@H]2O` [PACLITAXEL], the figures for the IC50 in assay [1] and in assay [2] were 0.0016 µM and 0.92 µM, respectively.

For the origin of these results see ChEMBL document CHEMBL1139913, “Synthesis, biological evaluations, and tubulin binding poses of C-2alpha sulfur linked taxol analogues” (Bioorg Med Chem Lett, 2007).
